According to publication PMC7311426, “An amphipathic peptide with antibiotic activity against multidrug-resistant Gram-negative bacteria” (Nature Communications, 2020):
Residues, ends and D or L forms follow the SMILES beside them.

Tests used:
[1] = Dose range finding & MTD iv toxicity
[2] = Intravenous pharmacokinetics; conditions: for Nonlin fit of XY (Prism), mouse i.v. bolus / level at 1.23 h / level at 2 h / level at 3 h / level at 4 h / level at 8 h / level at 0.08 h / level at 0.5 h / level at 1 h / level at 24 h: Cross species PK; for Nonlin fit of XY (Prism), mouse i.v. bolus: fitted curve; for level at 1.23 h / level at 2 h / level at 3 h / level at 4 h / level at 8 h / level at 0.08 h / level at 0.5 h / level at 1 h / level at 24 h: concentration (Fig 6 source data)
Experimental: The studies were performed at Fidelta Ltd, Croatia (mice), under review by the institutional ethics committee (CARE-Zg), and Covance Laboratories UK and Muenster Germany (cynomolgus monkey and minipig) in accordance with the requirements of the Animals (Scientific Procedures) Act 1989 and a maintained local ethical review. All studies were contracted by Adenium Biotech ApS. Mice were housed in polysulfone cages with an acclimatization period of 7 days prior to experiments with air temperature maintained at 22 °C with 55% humidity and light–dark cycles of 12 h light. Cynomolgus monkeys of age range 4–7 years were selected, tested for health, acclimatized for 2 weeks, and housed in single-animal climate controlled stainless-steel cages with a minimum of 8 air changes per hour with air temperature at 19–25 °C and relative humidity 40–70%, and light–dark cycles of 12 h light. Minipigs of age range 4–6 months were selected, tested for health, acclimatized for 2 weeks, and housed in single-animal pens with 15–20 air changes per hour with air temperature at 22–26 °C with light–dark cycles of 12 h light.
Mouse i.v. injection: A formulation of AA139 in Ringer’s acetate pH 6.0 (1 mg mL^−1) was administered to male CD1 mice (Charles River, Italy) at 10 mg kg^−1 as a 400 μL slow injection into the lateral tail vein. Blood samples were collected from the jugular vein at eight timepoints (n = 3 mice): 0.08, 0.25, 0.5, 1, 2, 4, 8, and 24 h. AA139 was quantified in plasma using solid phase extraction (SPE) followed by liquid chromatography with tandem mass spectrometric detection (LC–MS/MS). Pharmacokinetic analysis was performed using Phoenix WinNonlin 6.2. (Pharsight Corporation) software using individual animal data, non-compartmental sparse analysis, and the actual dose as determined from formulation analysis by UPLC.
Mouse, monkey, and minipig i.v. 2-h infusion: AA139 formulated in Ringer’s acetate was administered intravenously to CD1 mice, cynomolgus monkeys (Macaca fascicularis) and Göttingen A/S minipigs (Ellegaard Göttingen, Denmark) by continuous infusion over 2 h (minipig under anesthesia). Individual dose volumes were based on individual body weight. Blood samples were collected at 0.5, 1, 2, 3, 4, 8, 10, and 12 h after the start of the infusion (n = 6 mice, male and female combined; n = 2 monkeys, one male and one female; n = 2 minipigs, one male and one female). Bioanalytical analysis was performed by SPE followed by LC–MS/MS. The method was validated for an AA139 concentration range of 43.4–21,700 ng mL^−1. Pharmacokinetic parameters were calculated by standard non-compartmental analysis (NCA) using Phoenix WinNonlin version 6.2. The studies were conducted in compliance with Good Laboratory Practice (GLP) regulations.

[3] = system: HEK-293 human embryonic kidney cells; test: in vitro
[4] = cynomolgus monkey, in vivo, iv, 20 mg/kg
[5] = both, CD1, mouse, in vivo, iv, 10 mg kg-1
[6] = both, CD1, mouse, in vivo, iv, mouse 2h i.v. infusion, replicate 1
[7] = both, CD1, mouse, in vivo, iv, mouse 2h i.v. infusion, replicate 2
[8] = both, CD1, mouse, in vivo, iv, mouse 2h i.v. infusion, replicate 3
[9] = male, CD1, mouse, in vivo, iv, 10 mg kg-1
[10] = male, CD1, mouse, in vivo, iv, 10 mg/kg, mouse i.v. bolus, replicate 1
[11] = male, CD1, mouse, in vivo, iv, 10 mg/kg, mouse i.v. bolus, replicate 2
[12] = male, CD1, mouse, in vivo, iv, 10 mg/kg, mouse i.v. bolus, replicate 3

For `CC(C)[C@@H]1NC(=O)[C@H](Cc2ccc(O)cc2)NC(=O)[C@H](Cc2c[nH]c3ccccc23)NC(=O)[C@@H](NC(=O)[C@H](Cc2ccccc2)NC(=O)CN)CSSC[C@@H](C(=O)N[C@@H](CC(N)=O)C(=O)O)NC(=O)[C@H](CCCNC(=N)N)NC(=O)[C@H](CCCNC(=N)N)NC(=O)[C@H](Cc2ccc(O)cc2)NC(=O)[C@@H]2CSSC[C@H](NC1=O)C(=O)N[C@@H](C)C(=O)N[C@@H](CCCNC(=N)N)C(=O)N[C@@H](CCCNC(=N)N)C(=O)N[C@@H](CC(N)=O)C(=O)NCC(=O)N[C@@H](C)C(=O)N[C@@H](CCCNC(=N)N)C(=O)N[C@@H](C(C)C)C(=O)N2` [AA139] (HELM PEPTIDE1{G.F.C.W.Y.V.C.A.R.R.N.G.A.R.V.C.Y.R.R.C.N}$PEPTIDE1,PEPTIDE1,3:R3-20:R3|PEPTIDE1,PEPTIDE1,7:R3-16:R3$$$V2.0), the AUC(0-inf) [1, 4] was 80300 ng·h/mL, the Cmax [1, 4] was 15800 ng/mL and the NOAEL in monkeys ([1]; i.v. over 2 h QD or BID) was 15 mg kg^−1 per day. For the same molecule, the “Nonlin fit of XY (Prism), mouse i.v. bolus” value (shortened to “Nonlin fit of XY (Prism)”) ([2]; Time 19.1952 h) was 546.556, the “Nonlin fit of XY (Prism)” value ([2]; Time 20.1802 h) was 523.855 and the “Nonlin fit of XY (Prism)” value ([2]; Time 23.952 h) was 452.817. It also gave an AUC(0-inf) [2, 5] of 14000 ng·h/mL, a half-life [2, 5] of 174 min and a level at 1.23 h [2, 6] of 4540 ng/mL. The level at 1.23 h [2, 7] was 4960 ng/mL, the level at 1.23 h [2, 8] was 4090 ng/mL and the level at 2 h [2, 6] was 8160 ng/mL. For the same molecule, the level at 2 h [2, 7] was 8010 ng/mL, the level at 2 h [2, 8] was 3870 ng/mL and the level at 3 h [2, 6] was 3530 ng/mL. For the same molecule, the level at 3 h [2, 7] was 3750 ng/mL, the level at 3 h [2, 8] was 1420 ng/mL and the level at 4 h [2, 6] was 1350 ng/mL. It also gave a level at 4 h [2, 7] of 1140 ng/mL, a level at 4 h [2, 8] of 1490 ng/mL and a level at 8 h [2, 6] of 110 ng/mL. For the same molecule, the level at 8 h [2, 7] was 216 ng/mL, the level at 8 h [2, 8] was 178 ng/mL and the “Clearance relative to rate of liver blood flow” value ([2]; i.v., mice, cynomolgus monkeys and minipigs) was ~ 20%. For the same molecule, the half-life ([2]; i.v., mice, cynomolgus monkeys and minipigs, bi-exponential elimination) was 120 to 240 min, the AUC(0-inf) [2, 9] was 24900 ng·h/mL and the Vd [2, 9] was 0.91 L/kg. For the same molecule, the half-life [2, 9] was 192 min, the Cmax ([2]; male, CD1, mouse, in vivo, iv, 10 mg/kg) was 16200 ng/mL and the level at 0.08 h [2, 10] was 14900 ng/mL. It also gave a level at 0.08 h [2, 11] of 10800 ng/mL, a level at 0.08 h [2, 12] of 13200 ng/mL and a level at 0.5 h [2, 10] of 8770 ng/mL. The level at 0.5 h [2, 11] was 8380 ng/mL, the level at 0.5 h [2, 12] was 6290 ng/mL and the level at 1 h [2, 10] was 7140 ng/mL. The level at 1 h [2, 11] was 5150 ng/mL, the level at 1 h [2, 12] was 3780 ng/mL and the level at 2 h [2, 10] was 5140 ng/mL. The level at 2 h [2, 11] was 2960 ng/mL, the level at 2 h [2, 12] was 3850 ng/mL and the level at 4 h [2, 10] was 1600 ng/mL. The level at 4 h [2, 11] was 1470 ng/mL, the level at 4 h [2, 12] was 1500 ng/mL and the level at 8 h [2, 10] was 402 ng/mL. It also gave a level at 8 h [2, 11] of 388 ng/mL, a level at 8 h [2, 12] of 472 ng/mL and a level at 24 h [2, 10] of 48 ng/mL. The level at 24 h [2, 11] was 32 ng/mL, the level at 24 h [2, 12] was 31 ng/mL and the “Cross species PK, concentration (Fig 6 source data)” value (from here on “Cross species PK, concentration”) ([2]; mouse 2h i.v. infusion, time 10 h, replicate 1) was 88. The “Cross species PK, concentration” value ([2]; mouse 2h i.v. infusion, time 10 h, replicate 2) was 124, the “Cross species PK, concentration” value ([2]; mouse 2h i.v. infusion, time 10 h, replicate 3) was 134 and the “Cross species PK, concentration” value ([2]; mouse 2h i.v. infusion, time 12 h, replicate 1) was 72.4. For the same molecule, the “Cross species PK, concentration” value ([2]; mouse 2h i.v. infusion, time 12 h, replicate 2) was 93.8, the “Cross species PK, concentration” value ([2]; mouse 2h i.v. infusion, time 12 h, replicate 3) was 62.7 and the “CC50 HEK293, Mean” value [3] was over 300 µg/mL.
